Measured values as given in patent EP3502102A1, “STING INHIBITORS” (ECOLE POLYTECHNIQUE FEDERALE DE LAUSANNE (EPFL), priority 2017, dated 2019).

Biological target: T1, STING (Mus musculus, UniProt Q3TBT3)
T1 sequence (Q3TBT3 1-378): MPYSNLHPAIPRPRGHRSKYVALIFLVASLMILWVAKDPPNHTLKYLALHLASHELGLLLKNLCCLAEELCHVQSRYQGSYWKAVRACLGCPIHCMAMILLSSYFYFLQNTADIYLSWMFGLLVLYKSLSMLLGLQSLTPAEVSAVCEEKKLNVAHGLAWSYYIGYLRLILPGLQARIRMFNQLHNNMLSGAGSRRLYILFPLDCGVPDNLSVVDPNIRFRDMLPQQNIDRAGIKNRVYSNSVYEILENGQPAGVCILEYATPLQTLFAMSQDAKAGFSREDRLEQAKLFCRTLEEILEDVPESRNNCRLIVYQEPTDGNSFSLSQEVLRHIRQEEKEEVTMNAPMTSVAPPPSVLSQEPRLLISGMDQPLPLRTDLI
Test: High-throughput screen and secondary screen in HEK293T cells expressing mCherry-STING, cdG-Syn versus RIG-I
Type: cell-based
Parameters: expressed in transfected cells; host or cells: HEK293T
Settings: primary screen and counter-screen; library compounds 10 µM
Procedure: Reporter activity was measured 16 h after compound treatment. A nonlinear regression analysis was performed. […] Circles indicate substitutes compared to C-176. d, e, Chemical compounds from ([…]) in conjunction with IFN-• luciferase reporter, respectively. b, e, f, Values of inhibitor-treated cells were normalized to DMSO-treated cells. […] Cytokine levels were normalized to DMSO-treated control cells. A nonlinear regression analysis was performed for cGAMP stimulation. b, c, BMDMs were pre-treated with C-178 (0.25 µM) and stimulated with cGAMP, cyclic di-GMP, CMA, 90mer dsDNA or LPS for 3 h. The induction of Ifnb1 mRNA levels was assessed by RT-qPCR. d, Heatmaps of RNA sequencing analysis of BMDMs treated with DMSO or CMA and with or without addition of C-178. […] Reporter activity was measured 16 h after transfection and values were normalized to DMSO-treated control cells. c, BMDMs were treated with C-178 (0.25 µM) for 1 h, washed or left untreated and after an additional hour stimulated with cGAMP. […] Flag-STING was immunoprecipitated from whole cell lysate and analysed by autoradiography. In parallel, cell lysates were analysed by immunoblotting for p-TBK1 and STING. d, HEK293T cells expressing STING were treated as indicated (C-178 (1 µM)) and stimulated with CMA for 1.5 h. […] Depicted genes were measured by RT-qPCR.

Compound: O=C(Nc1ccc(I)cc1)c1ccc([N+](=O)[O-])o1 [C-176, N-(4-iodophenyl)-5-nitro-2-furamide]
- IFN signal in response to cdG-Syn/STING versus RIG-I: selectively reduced the IFN signal in response to cdG-Syn/STING but not to RIG-I
